In brackets after ≈: the same amount, converted by molar mass. Values belong to the compound of their own block, whether it stands above or below them.
What was measured:
Format in all cases: functional, cell-based
[1] = tested on: IGR-1; assay: Antiproliferative activity against human IGR-1 cells after 48 hrs by MTT assay; conditions: IGR-1, 48 h
[2] = tested on: IGR-1; assay: Antiproliferative activity against human IGR-1 cells after 72 hrs by MTT assay; conditions: IGR-1, 72 h
[3] = tested on: J774; assay: Cytotoxicity against mouse J774 cells after 24 hrs by MTT assay; conditions: J774, 24 h
[4] = tested on: J774; assay: Antiproliferative activity against mouse J774 cells after 48 hrs by MTT assay; conditions: J774, 48 h
[5] = tested on: J774; assay: Antiproliferative activity against mouse J774 cells after 72 hrs by MTT assay; conditions: J774, 72 h
[6] = tested on: WEHI-164; assay: Cytotoxicity against mouse WEHI164 cells after 24 hrs by MTT assay; conditions: WEHI-164, 24 h
[7] = tested on: WEHI-164; assay: Antiproliferative activity against mouse WEHI164 cells after 48 hrs by MTT assay; conditions: WEHI-164, 48 h
[8] = tested on: WEHI-164; assay: Antiproliferative activity against mouse WEHI164 cells after 72 hrs by MTT assay; conditions: WEHI-164, 72 h
[9] = tested on: P388; assay: Cytotoxicity against mouse P388 cells after 24 hrs by MTT assay; conditions: P388, 24 h
[10] = tested on: P388; assay: Antiproliferative activity against mouse P388 cells after 48 hrs by MTT assay; conditions: P388, 48 h
[11] = tested on: P388; assay: Antiproliferative activity against mouse P388 cells after 72 hrs by MTT assay; conditions: P388, 72 h
[12] = tested on: IGR-1; assay: Cytotoxicity against human IGR-1 cells after 24 hrs by MTT assay; conditions: IGR-1, 24 h

Compound: C[C@@H]1CC[C@@]2(OC1)O[C@H]1C[C@H]3[C@@H]4C[C@@H](O)[C@H]5C[C@@H](O)[C@H](O)C[C@]5(C)[C@H]4CC[C@]3(C)[C@H]1[C@@H]2C [AGIGENIN]
IC50 [1]: 627 mg/L (≈ 1400 µM)
IC50 [2]: 264 mg/L (≈ 588 µM)
IC50 [3]: 896 mg/L (≈ 2000 µM)
IC50 [4]: 655 mg/L (≈ 1460 µM)
IC50 [5]: 321 mg/L (≈ 715 µM)
IC50 [6]: 836 mg/L (≈ 1860 µM)
IC50 [7]: 548 mg/L (≈ 1220 µM)
IC50 [8]: 210 mg/L (≈ 468 µM)
IC50 [9]: 609 mg/L (≈ 1360 µM)
IC50 [10]: 471 mg/L (≈ 1050 µM)
IC50 [11]: 354 mg/L (≈ 789 µM)

IC50 [10]: 2.1 mg/L (≈ 13.8 µM)
IC50 [11]: 0.3 mg/L (≈ 1.97 µM)
Compound: Sc1ncnc2nc[nH]c12 [MERCAPTOPURINE ANHYDROUS]
IC50 [12]: 51.7 mg/L (≈ 340 µM)
IC50 [1]: 12.3 mg/L (≈ 80.8 µM)
IC50 [2]: 1.1 mg/L (≈ 7.23 µM)
IC50 [3]: 61 mg/L (≈ 401 µM)
IC50 [4]: 3.6 mg/L (≈ 23.7 µM)
IC50 [5]: 0.5 mg/L (≈ 3.29 µM)
IC50 [6]: 83 mg/L (≈ 545 µM)
IC50 [7]: 42 mg/L (≈ 276 µM)
IC50 [8]: 2.7 mg/L (≈ 17.7 µM)
IC50 [9]: 37 mg/L (≈ 243 µM)

Compound: C[C@@H]1CC[C@@]2(OC1)O[C@H]1C[C@H]3[C@@H]4C[C@@H](O)[C@H]5C[C@@H](O)[C@@H](O)C[C@]5(C)[C@H]4CC[C@]3(C)[C@H]1[C@@H]2C [PORRIGENIN A]
IC50 [12]: 942 mg/L (≈ 2100 µM)
IC50 [1]: 471 mg/L (≈ 1050 µM)
IC50 [2]: 184 mg/L (≈ 410 µM)
IC50 [3]: 754 mg/L (≈ 1680 µM)
IC50 [4]: 515 mg/L (≈ 1150 µM)
IC50 [5]: 270 mg/L (≈ 602 µM)
IC50 [7]: 277 mg/L (≈ 617 µM)
IC50 [8]: 110 mg/L (≈ 245 µM)
IC50 [9]: 617 mg/L (≈ 1380 µM)
IC50 [10]: 270 mg/L (≈ 602 µM)
IC50 [11]: 115 mg/L (≈ 256 µM)

IC50 [10]: 185 mg/L (≈ 414 µM)
IC50 [11]: 74 mg/L (≈ 166 µM)
Compound: C[C@@H]1CC[C@@]2(OC1)O[C@H]1C[C@H]3[C@@H]4C[C@@H](O)[C@H]5C[C@@H](O)C(=O)C[C@]5(C)[C@H]4CC[C@]3(C)[C@H]1[C@@H]2C [PORRIGENIN B]
IC50 [12]: 823 mg/L (≈ 1840 µM)
IC50 [1]: 330 mg/L (≈ 739 µM)
IC50 [2]: 45 mg/L (≈ 101 µM)
IC50 [3]: 552 mg/L (≈ 1240 µM)
IC50 [4]: 111 mg/L (≈ 249 µM)
IC50 [5]: 51 mg/L (≈ 114 µM)
IC50 [6]: 655 mg/L (≈ 1470 µM)
IC50 [7]: 344 mg/L (≈ 770 µM)
IC50 [8]: 92 mg/L (≈ 206 µM)
IC50 [9]: 837 mg/L (≈ 1870 µM)

Source: ChEMBL document CHEMBL1158317, “Porrigenins A and B, novel cytotoxic and antiproliferative sapogenins isolated from Allium porrum” (J Nat Prod, 1997)
